Source: patent US9814796B2, “Methods for sterilization and/or disinfection” (P[…] OF NEVADA, LLC, priority 2015, dated 2017)

System: Bacillus atrophaeus ATCC 9372 spores
Assay: Spore inactivation by 3.25 wt. % performic acid at various times and temperatures
Assay type: cell-based
Settings: for Colony Forming Units (CFU) / Log Reduction: 3.25 wt. % performic acid
Source text: An aqueous solution containing x weight percent of performic acid may be prepared by (1) diluting a commercially available aqueous solution of hydrogen peroxide (e.g., a 30 weight percent aqueous solution or a 50 weight percent aqueous solution) down to a concentration of 2x; (2) diluting a commercially available aqueous solution of formic acid (e.g., a 95 weight percent aqueous solution) down to a concentration of 2x; and (3) combining the diluted solution of hydrogen peroxide and the diluted solution of formic acid in a 1:1 volume, thereby providing performic acid in a concentration of x.
The procedure for performing spore inactivation tests in solution is as follows: Bacillus atrophaeus ATCC 9372 spores in saline were equilibrated in a water bath at the preselected test temperature, as was a formic acid/hydrogen peroxide mixture. At an initial time (T0), a volume of the formic acid/peroxide mixture was added to the spore preparation, such that the pre-chosen test concentration of the sterilization agent was achieved. At preselected times after the addition of the sterilization agent to the spore preparation, aliquots of the spore-treated mixture were transferred into a solution containing an excess of catalase (MP Biomedical) in order to quench the peroxide reaction. This solution was then serially ten-fold diluted and spread-plated onto tryptic soy agar plates that were subsequently incubated at 35° C. for 48 hours and enumerated.
An aqueous solution containing 3.25 wt. % of performic acid was prepared by (1) diluting a 50 wt. % aqueous solution of hydrogen peroxide down to a concentration of 6.5 wt. %; (2) diluting a 95 wt. % aqueous solution of formic acid down to a concentration of 6.5 wt. %; and (3) combining the 6.5 wt. % solution of hydrogen peroxide and the 6.5 wt. % solution of formic acid in a 1:1 volume.

performic acid
Colony Forming Units (CFU) (10° C., 5 seconds): 0 CFU | Log Reduction (10° C., 5 seconds): >7.8 | Colony Forming Units (CFU) (10° C., 10 seconds): 0 CFU | Log Reduction (10° C., 10 seconds): >7.8 | Colony Forming Units (CFU) (10° C., 15 seconds): 0 CFU | Log Reduction (10° C., 15 seconds): >7.8 | Colony Forming Units (CFU) (20° C., 5 seconds): 0 CFU | Log Reduction (20° C., 5 seconds): >8 | Colony Forming Units (CFU) (20° C., 10 seconds): 0 CFU | Log Reduction (20° C., 10 seconds): >8 | Colony Forming Units (CFU) (20° C., 15 seconds): 0 CFU | Log Reduction (20° C., 15 seconds): >8 | effectiveness in killing spores (in words) (room temperature and below (e.g., 5° C. or 10° C.), exposure times as little as 5 seconds): surprisingly and unexpectedly effective
